Experimental data reported in article PMC6277780, “A Multi-Mode Bioactive Agent Isolated From Ficus microcarpa L. Fill. With Therapeutic Potential for Type 2 Diabetes Mellitus” (Frontiers in Pharmacology, 2018).
One block for each compound: values may come before it.

What was measured:
DPP-4 = DPP-4 (Homo sapiens, UniProt P27487); assay: DPP-4 inhibition assay (fluorometric, Gly-Pro-AMC); format: biochemical; settings: pure compound and positive control
Method: DPP-4 inhibition activity was assessed by using fluorometric technique, following the method documented by [Saleem et al., 2014]. This method calculates the quantity of free AMC (7-amino-4-methyl-coumarin). The AMC is released from the Gly-Pro-AMC which is the substrate of DPP-4. Experiment was performed in triplicate. Fluorescence was measured at Em 430 nm following excitation at Ex351 nm using a Tecan safire desktop fluorometer (Reading, England, United Kingdom). 50 mM HEPES buffer was used for preparation of each sample, whose pH was 7.4. To each well we added DPP-4 (20 μl 1 U/ml), test sample (20 μl) and […]. Plates were placed at 37°C for 1 h and then 3 mM acetic acid (100 μl) was pipetted to stop the reaction. We used Berberine (13 mM), as a control for each experiment, as already reported ([Al-Masri et al., 2009]). IC50 for inhibition of DPP-4 was calculated for each sample.

AMPK = AMPK activation potential in primary hepatocytes (western blot); format: cell-based, C57BL/6 mice; settings: 8 h, PA 20 μM, glucagon 2 μM
Method: To evaluate the AMPK activation potential of PA we performed in vitro analysis. We used primary hepatocytes, derived from C57BL/6 mice (Cell Biologics; Cat. C57-6224F). Hepatocytes were kept in M199 (Corning), supplemented with FBS (fetal bovine serum 10%) and glutagro (1% Corning). Hepatocytes were then serum starved, overnight, and prior to procedure in RPMI 1640 (United States Biological Life Sciences, R8999). 8 h prior to harvest, cells were treated with glucagon (2 μM), or test sample (20 μM). Cells were rinsed with ice cold PBS, twice, after harvest and were placed on ice until the extraction of protein was carried out. Assay was conducted in triplicate with three plates for each treatment. Protein from cells was hauled out; quantified and western blot was performed to assess the activation of AMPK after treatment with PA and compared it with untreated control and the cells treated with glucagon.
Extraction of proteins and western blot analysis was carried out, as we already reported ([Akhtar et al., 2016]). Briefly, lysis buffer was added to the harvested cells. […] Concentration of protein in each lysate was measured using Pierce BCA protein assay kit (Thermo Scientific), as per manufacturer’s protocol. […]

α-glucosidase = α-glucosidase (Saccharomyces cerevisiae, UniProt P53341); assay: α-Glucosidase inhibition assay (pNPG substrate, 405 nm); format: biochemical; settings: Table 1, unit inferred
Chain of α-glucosidase (P53341 whole entry): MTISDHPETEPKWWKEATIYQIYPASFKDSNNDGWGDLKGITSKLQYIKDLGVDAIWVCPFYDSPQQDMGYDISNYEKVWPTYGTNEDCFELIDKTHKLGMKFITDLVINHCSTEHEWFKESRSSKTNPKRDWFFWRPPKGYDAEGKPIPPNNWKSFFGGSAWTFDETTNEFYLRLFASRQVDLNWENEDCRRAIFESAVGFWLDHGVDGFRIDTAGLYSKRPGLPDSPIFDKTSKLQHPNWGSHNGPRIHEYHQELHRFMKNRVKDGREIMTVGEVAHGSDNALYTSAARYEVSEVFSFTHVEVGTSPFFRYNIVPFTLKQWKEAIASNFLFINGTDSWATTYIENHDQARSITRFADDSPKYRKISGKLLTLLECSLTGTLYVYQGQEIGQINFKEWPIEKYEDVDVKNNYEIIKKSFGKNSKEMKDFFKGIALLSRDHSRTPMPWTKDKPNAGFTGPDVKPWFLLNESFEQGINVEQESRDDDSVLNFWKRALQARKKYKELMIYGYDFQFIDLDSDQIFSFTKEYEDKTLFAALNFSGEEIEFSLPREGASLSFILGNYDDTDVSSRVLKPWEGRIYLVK
Method: α-Glucosidase inhibition activity of the fractions and pure compounds (both PA and FL) was determined using the method of [Li et al. (2005)], while few modifications were made, according to system suitability. […] The decrease in absorption spectrum of reaction mixture indicated the inhibition of α-glucosidase activity of the sample under test. Assays were conducted in triplicate in 96-well microtitre plates. […] Percentage of inhibition was calculate by using following formula.
(1) Inhibitory activity=(OD control−OD test sample)/OD control×100
IC50 was calculated by using table curve ASIN software (2D v4) through linear regression analysis.

Chain of DPP-4 (P27487 whole entry, species assumed): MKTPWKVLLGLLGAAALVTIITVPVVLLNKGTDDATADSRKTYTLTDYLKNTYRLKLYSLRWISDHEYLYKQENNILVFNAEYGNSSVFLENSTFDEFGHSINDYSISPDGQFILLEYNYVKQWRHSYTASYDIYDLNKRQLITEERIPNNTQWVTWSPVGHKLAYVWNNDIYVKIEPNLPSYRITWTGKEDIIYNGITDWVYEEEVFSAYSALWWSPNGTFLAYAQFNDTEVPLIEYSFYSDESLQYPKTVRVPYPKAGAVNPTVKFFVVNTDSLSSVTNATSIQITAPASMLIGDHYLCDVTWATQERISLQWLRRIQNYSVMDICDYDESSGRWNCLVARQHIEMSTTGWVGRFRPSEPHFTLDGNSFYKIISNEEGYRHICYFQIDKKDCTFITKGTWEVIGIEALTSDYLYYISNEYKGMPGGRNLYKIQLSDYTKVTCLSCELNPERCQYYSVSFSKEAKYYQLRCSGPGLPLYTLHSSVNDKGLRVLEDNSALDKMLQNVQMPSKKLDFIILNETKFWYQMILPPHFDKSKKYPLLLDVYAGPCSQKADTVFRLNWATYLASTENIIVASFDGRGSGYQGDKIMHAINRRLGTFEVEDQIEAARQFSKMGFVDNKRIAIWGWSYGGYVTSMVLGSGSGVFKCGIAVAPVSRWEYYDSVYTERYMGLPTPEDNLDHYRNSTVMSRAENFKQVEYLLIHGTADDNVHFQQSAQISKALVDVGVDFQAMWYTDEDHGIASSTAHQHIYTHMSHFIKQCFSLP

IC50 (DPP-4): 27.4 ± 2.2 µM
Compound: COc1ccc2cc3[n+](cc2c1OC)CCc1cc2c(cc1-3)OCO2 [Berberine, reference compound]

Compound: glucagon [reference compound]
AMPK activation (phosphorylation of AMPK at Thr172) (AMPK): no AMPK activation
phosphorylation of ACC to p-ACC at S79 (AMPK): not observed

Compound: 3,4,5,7-Flavantetrol
IC50 (α-glucosidase): 200 µM
